This note sets out measurements from US7273848B2, “Apolipoprotein A-I agonists and their use to treat dyslipidemic disorders” (priority 1997, dated 2007).

No end group written: not given here.

This data set in a line: Superose 6 gel filtration chromatography of peptide-lipid complexes. The class given is physicochemical. The settings on record: peptide/DPPC complexes, 1 mg peptide and 3 mgs DPPC, colyophilized, in 0.9% NaCl. How it is done: An aliquot of the resulting reconstituted preparation can be characterized to confirm that the complexes in the preparation have the desired size distribution; e.g., the size distribution of HDL. Gel filtration chromatography can be used to this end. In the working examples described infra, a Pharmacia Superose 6 FPLC gel filtration chromatography system was used. The buffer used contains 150 mM NaCl in 50 mM phosphate buffer, pH 7.4. A typical sample volume is 20 to 200 microliters of complexes containing 5 mgs peptide/ml. The column flow rate is 0.5 mls/min. A series of proteins of known molecular weight and Stokes' diameter as well as human HDL are used as standards to calibrate the column. The proteins and lipoprotein complexes are monitored by absorbance or scattering of light of wavelength 254 or 280 nm.
Peptide-phospholipid complexes containing peptide 149 (SEQ ID NO:149) were prepared by colyophilization as described above. The preparation contained 1 mg peptide and 3 mgs DPPC by weight. […] The chromatography was monitored by absorbance or scattering of light of wavelength 280 nm. […] The vast majority of both phospholipid and UV absorbance were recovered together in a few fractions with peaks at approximately 15.8 mls. […]

Consider PVLELFENLWERLLDALQKKLK [peptide 149], for which the “Stokes' diameter” value came to 87 Angstroms.
